Measured values reported in ChEMBL document CHEMBL1147283, “Bullatacin and bullatacinone: two highly potent bioactive acetogenins from Annona bullata” (J Nat Prod, 1989).
≈ marks a conversion by molar mass, not a printed value. Calls of active or inactive are those of the source. No cut-off for these calls is given here.

Columns and labels:
[1] = Toxicity in brine shrimp; assay type: organism-based; conditions: artemia, in vivo
[2] = (§1) Cytotoxicity against mouse 9PS cells; assay type: functional; conditions: read-out: ED50 (the source's name)
[3] = (§2) Cytotoxicity against human 9KB cells; assay type: functional
A549 = assay: Cytotoxicity against human A549 cells; assay type: functional, cell-based; conditions: for EC50: Homo sapiens, A549, read-out: ED50 (the source's name)
HT-29 = assay: Cytotoxicity against human HT-29 cells; assay type: functional, cell-based
Aphis gossypii [4] = assay: Pesticidal activity against Aphis gossypii at 10 ppm relative to control; assay type: functional
Aphis gossypii [5] = assay: Pesticidal activity against Aphis gossypii at 100 ppm relative to control; assay type: functional
Aphis gossypii [6] = assay: Pesticidal activity against Aphis gossypii at 400 ppm relative to control; assay type: functional
Aedes aegypti [7] = assay: Pesticidal activity against Aedes aegypti larvae at 0.5 ppm relative to control; assay type: functional
Aedes aegypti [8] = assay: Pesticidal activity against Aedes aegypti larvae at 1 ppm relative to control; assay type: functional
Aedes aegypti [9] = assay: Pesticidal activity against Aedes aegypti larvae at 10 ppm relative to control; assay type: functional
Spodoptera eridania [10] = assay: Pesticidal activity against Spodoptera eridania at 100 ppm relative to control; assay type: functional
Spodoptera eridania [11] = assay: Pesticidal activity against Spodoptera eridania at 400 ppm relative to control; assay type: functional
[12] = system: Diabrotica undecimpunctata; assay: Pesticidal activity against Diabrotica undecimpunctata howardi at 6 ppm relative to control; assay type: functional
[13] = system: Diabrotica undecimpunctata; assay: Pesticidal activity against Diabrotica undecimpunctata howardi at 24 ppm relative to control; assay type: functional
Tetranychus urticae [14] = assay: Pesticidal activity against Tetranychus urticae at 10 ppm relative to control; assay type: functional
Tetranychus urticae [15] = assay: Pesticidal activity against Tetranychus urticae at 100 ppm relative to control; assay type: functional
Tetranychus urticae [16] = assay: Pesticidal activity against Tetranychus urticae at 400 ppm relative to control; assay type: functional
Mus musculus = species on record: Mus musculus; assay: as §1; assay type: functional
9KB = assay: as §2; assay type: functional
[17] = Displacement of radiolabeled ligand form protein kinase C at 10 uM

## CCCCCCCCCC[C@H](OC(C)=O)[C@H]1CC[C@H]([C@H]2CC[C@H]([C@@H](CCCCCCCCCC[C@@H]3C[C@@H](CC(C)=O)C(=O)O3)OC(C)=O)O2)O1 [BULLATACINONE DIACETATE]
[1]
  LC50: > 10 µg/mL
[2]
  EC50: 0.0422 µg/mL
[3]; Homo sapiens, 9KB, read-out: ED50 (the source's name)
  EC50: 0.005 µg/mL
A549
  EC50: 0.028 µg/mL
HT-29
  ED50: 1 ×10⁻¹ umol/L

## CCCCCCCCCC[C@H](O)[C@H]1CC[C@H]([C@H]2CC[C@H]([C@H](O)CCCCCCCCCC[C@@H]3CC(CC(C)=O)C(=O)O3)O2)O1 (stereo partly specified) [BULLATACINONE]
[1]
  LC50: 0.003 µg/mL (≈ 0.00482 µM)
[2]
  EC50: 0.00423 µg/mL (≈ 0.00679 µM)
[3]
  ED50: <1 ×10⁻¹² ug/ml
A549
  EC50: 0.001 µg/mL (≈ 0.00161 µM)
HT-29
  ED50: 5 ×10⁻¹² ug/ml
Aphis gossypii [4]
  Activity: 0%
Aphis gossypii [5]
  Activity: 0%
Aphis gossypii [6]
  Activity: 0%
Aedes aegypti [7]
  Activity: 0%
Aedes aegypti [8]
  Activity: 0%
Aedes aegypti [9]
  Activity: 0%
Spodoptera eridania [10]
  Activity: 0%
Spodoptera eridania [11]
  Activity: 0%
[12]
  Activity: 0%
[13]
  Activity: 0%
Tetranychus urticae [14]
  Activity: 0%
Tetranychus urticae [15]
  Activity: 0%
Tetranychus urticae [16]
  Activity: 0%

## C=C1C[C@@]23CC[C@H]4[C@@](C)(CCC[C@]4(C)C(=O)O)[C@@H]2CCC1C3
[1]
  LC50: 0.87 µg/mL (≈ 2.88 µM)

## CCCCCCCCCC[C@H](O)[C@H]1CC[C@H]([C@H]2CC[C@H]([C@H](O)CCCCCCCCCC[C@@H](O)CC3C[C@H](C)OC3=O)O2)O1 (stereo partly specified) [DIHYDROBULLATACIN]
[1]
  LC50: 0.0145 µg/mL (≈ 0.0232 µM)
A549
  ED50: <1 ×10⁻⁶ ug/ml
HT-29
  ED50: 3.33 ×10⁻⁵ ug/ml

## CCCCCCCCCC[C@H](OC(C)=O)[C@H]1CC[C@H]([C@H]2CC[C@H]([C@@H](CCCCCCCCCC[C@H](CC3=C[C@H](C)OC3=O)OC(C)=O)OC(C)=O)O2)O1 [BULLATACIN TRIACETATE]
[1]
  LC50: 5.7 µg/mL
[2]
  EC50: 0.00389 µg/mL
[3]
  ED50: 6.85 ×10⁻⁷ ug/ml
A549
  EC50: 0.002 µg/mL
HT-29; Homo sapiens, HT-29, read-out: ED50 (the source's name)
  EC50: > 0.1 µg/mL

## O=C1c2ccccc2-c2c3c(cc4ccnc1c24)OCO3 [LIRIODENINE]
[1]
  LC50: 1.1 µg/mL (≈ 4 µM)
Mus musculus
  Activity: inactive
9KB
  Activity: inactive

## CCCCCCCCCC[C@@H](O)[C@@H]1CC[C@@H]([C@@H]2CC[C@@H]([C@H](O)CCCCCCCCCC(O)CC3=CC(C)OC3=O)O2)O1 (stereo partly specified) [BULLATACIN]
[17]
  Activity: 7%
